# Earlier results, collected in patent US20170056386A1, “TOPICAL ANTIFUNGAL COMPOSITION FOR TREATING ONYCHOMYCOSIS” (Polichem SA, priority 2014, published 2017).
# Tested on: onychomycosis
# Conditions: oral administration
smiles,measurement,value
CN(C/C=C/C#CC(C)(C)C)Cc1cccc2ccccc12 [terbinafine],Complete cure (patients),38%
